Assay results as given in patent publication US7300946B2, “N-(substituted arylmethyl)-4-(disubstituted methyl) piperidines and pyridines” (Bayer CropScience AG, priority 2002, dated 2007).

Test system: tobacco budworm (Heliothis virescens [Fabricius])
Assay: surface-treated diet test against the tobacco budworm
Type: in vivo
Conditions: tobacco budworm second instar larvae, 0.25 millimoles of candidate insecticide on the surface of the diet, five-day exposure; for Percent Mortality: compared to total number of insects infested; for Percent Growth Inhibition: inhibition of insect weight relative to untreated controls
Description: Candidate insecticides were evaluated for activity against the tobacco budworm (Heliothis virescens [Fabricius]) in a surface-treated diet test.
In this test one mL of molten (65–70° C.) wheat germ-based artificial diet was pipetted into each well of a four by six (24 well) multi-well plate (ID# 430345-15.5 mm dia.×17.6 mm deep; Corning Costar Corp., One Alewife Center, Cambridge, Mass. 02140). The diet was allowed to cool to ambient temperature before treatment with candidate insecticide.
For a determination of insecticidal activity, solutions of the candidate insecticides were prepared for testing using a Packard 204DT Multiprobe® Robotic System (Packard Instrument Company, 800 Research Parkway, Meriden, Conn. 06450), in which the robot first diluted a standard 50 millimolar DMSO solution of candidate insecticide with a 1:1 water/acetone solution (V/V) in a ratio of 1:7 stock solution to water/acetone. The robot subsequently pipetted 40 microliters of the so-prepared solution onto the surface of the diet in each of three wells in the 24 multi-well plate. The process was repeated with solutions of seven other candidate insecticides. Once treated, the contents of the multi-well plate were allowed to dry, leaving 0.25 millimoles of candidate insecticide on the surface of the diet, or a concentration of 0.25 millimolar. Appropriate untreated controls containing only DMSO on the diet surface were also included in this test. […]
In each well of the test plate was placed one second instar tobacco budworm larvea, each weighing approximately five milligrams. After the larvae were placed in each well, the plate was sealed with clear polyfilm adhesive tape. The tape over each well was perforated to ensure an adequate air supply. The plates were then held in a growth chamber at 25° C. and 60% relative humidity for five days (light 14 hours/day).
After the five-day exposure period insecticidal activity for each rate of application of candidate insecticide was assessed as percent inhibition of insect weight relative to the weight of insects from untreated controls, and percent mortality when compared to the total number of insects infested.
The test compounds of formula I are identified by numbers that correspond to those in Table 1.
These tests were conducted with 0.25 millimoles of candidate insecticide on the surface of the diet.

Compound | Percent Mortality (surface-treated diet) | Percent Growth Inhibition (surface-treated diet) | Percent Mortality | Percent Growth Inhibition
CCn1nnc(-c2ccc(CN3CCC(C(OC(=O)Nc4cc(F)cc(F)c4)c4ccc(C(F)(F)F)cc4)CC3)cc2)n1 (stereo not drawn) [Compound 610] | 100% | 100% |  | 
O=C(Nc1ccc(F)c(F)c1)OC(c1ccc(C(F)(F)F)cc1)C1CC[N+]([O-])(Cc2ccc(Oc3ccccn3)cc2)CC1 (stereo not drawn) [Compound 754] |  |  | 100% | 100%
CCCOc1ccc(CN2CCC(C(OC(=O)Nc3cc(F)cc(F)c3)c3cccc(C(F)(F)F)c3)CC2)cc1 (stereo not drawn) [Compound 487] | 100% | 100% |  | 
Cn1nnc(-c2ccc(CN3CCC(C(NC(=O)Nc4ccc(Br)cc4)c4ccc(OC(F)(F)F)cc4)CC3)cc2)n1 (stereo not drawn) [Compound 337] | 100% | 100% |  | 
CCn1nnc(-c2ccc(CN3CCC(C(OC(=O)Nc4ccc(C(F)(F)F)cc4)c4ccccc4)CC3)cc2)n1 (stereo not drawn) [Compound 565] | 100% | 100% |  | 
O=C(Nc1cc(F)cc(F)c1)OC(c1ccc(C(F)(F)F)cc1)C1CCN(Cc2ccc(Oc3ncc(Cl)cc3Cl)cc2)CC1 (stereo not drawn) [Compound 686] | 17% | 98% |  | 
O=C(Nc1ccc(C(F)(F)F)cc1)OC(c1ccc(Cl)c(Cl)c1)C1CCN(Cc2ccc(Oc3ccccn3)cc2)CC1 (stereo not drawn) [Compound 651] | 100% | 100% |  | 
Cn1nnc(-c2ccc(CN3CCC(C(Oc4ccc(C(F)(F)F)cn4)c4ccc(OC(F)(F)F)cc4)CC3)cc2)n1 (stereo not drawn) [Compound 434, 2-[(1-{[4-(2-methyl(1,2,3,4-tetraazol-5-yl))phenyl]methyl}(4-piperidyl))[4-(trifluoromethoxy)phenyl]methoxy]-5-(trifluoromethyl)pyridine] | 100% | 100% |  | 
CCn1nnc(-c2ccc(CN3CCC(=C(c4ccc(C(F)(F)F)cc4)c4ccc(C(F)(F)F)cc4)CC3)cc2)n1 [Compound 82] | 100% | 100% |  | 
O=C(Nc1ccc(F)cc1)OC(c1ccc(OC(F)(F)F)cc1)C1CCN(Cc2ccc(Cl)cc2)CC1 (stereo not drawn) [Compound 459] | 0% | 99% |  | 
O=C(Nc1ccc(F)cc1)OC(c1ccc(C(F)(F)F)cc1)C1CCN(Cc2ccc(-c3csnn3)cc2)CC1 (stereo not drawn) [Compound 559] | 17% | 97% |  | 
O=C(Nc1cc(F)cc(F)c1)OC(c1ccc(OC(F)(F)F)cc1)C1CCN(Cc2ccc(Oc3ncccn3)cc2)CC1 (stereo not drawn) [Compound 735] |  |  | 100% | 100%
CC(=O)Nc1ccc(CN2CCC(=C(c3ccc(C(F)(F)F)cc3)c3ccc(C(F)(F)F)cc3)CC2)cc1 [Compound 52] | 33% | 100% |  | 
O=C(Nc1ccc(F)cc1)OC(c1ccc(F)cc1)C1CCN(Cc2ccc(Oc3ccccn3)cc2)CC1 (stereo not drawn) [Compound 640] | 100% | 100% |  | 
CCn1nnc(-c2ccc(CN3CCC(C(OC(=O)Nc4cccc(C(F)(F)F)c4)c4ccc(C(F)(F)F)cc4)CC3)cc2)n1 (stereo not drawn) [Compound 288] | 100% | 100% |  | 
CC(C)OC(=O)Nc1ccc(CN2CCC(C(OC(=O)Nc3ccc(Cl)cc3)c3ccc(Cl)cc3Cl)CC2)cc1 (stereo not drawn) [Compound 506] | 100% | 100% |  | 
CCn1nnc(-c2ccc(CN3CCC(C(OCc4ccc(OC(F)(F)F)cc4)c4ccc(OC(F)(F)F)cc4)CC3)cc2)n1 (stereo not drawn) [Compound 305] | 100% | 95% |  | 
O=C(Nc1ccc(Cl)cc1)OC(c1ccc(C(F)(F)F)cc1)C1CCN(Cc2ccc(Oc3ccccn3)cc2)CC1 (stereo not drawn) [Compound 666] | 100% | 100% |  | 
CCNC(=O)Nc1ccc(CN2CCC(C(OC(=O)Nc3cc(F)cc(F)c3)c3ccc(C(F)(F)F)cc3)CC2)cc1 (stereo not drawn) [Compound 517] | 0% | 86% |  | 
O=C(Nc1cccc(Br)c1)OC(c1ccc(C(F)(F)F)cc1)C1CCN(Cc2ccc(Oc3ccccn3)cc2)CC1 (stereo not drawn) [Compound 672] | 100% | 100% |  | 
[O-][N+]1(Cc2ccc(Oc3ncccn3)cc2)CCC(=C(c2ccc(C(F)(F)F)cc2)c2cc(Cl)cc(Cl)c2)CC1 (stereo not drawn) [Compound 851] |  |  | 50% | 100%

Compound | Percent Mortality (surface-treated diet) | Percent Growth Inhibition (surface-treated diet) | Percent Mortality | Percent Growth Inhibition
CCCOc1ccc(CN2CCC(=C(c3cccc(OC(F)(F)F)c3)c3cccc(OC(F)(F)F)c3)CC2)cc1 [Compound 47] | 0% | 11% |  | 
[O-][N+]1(Cc2ccc(Nc3ccccn3)cc2)CCC(=C(c2ccc(C(F)(F)F)cc2)c2ccc(C(F)(F)F)cc2)CC1 (stereo not drawn) [Compound 843] |  |  | 100% | 100%
CCn1nnc(-c2ccc(CN3CCC(C(OC(=O)Nc4cc(F)cc(F)c4)c4ccc(C)cc4)CC3)cc2)n1 (stereo not drawn) [Compound 598] | 100% | 100% |  | 
Nc1ccc(CN2CCC(C(OC(=O)Nc3ccc(Cl)cc3)c3ccc(C(F)(F)F)cc3)CC2)cc1 (stereo not drawn) [Compound 465] | 0% | 92% |  | 
O=C(Nc1ccc(F)cc1F)OC(c1ccc(C(F)(F)F)cc1)C1CCN(Cc2ccc(Oc3ncccn3)cc2)CC1 (stereo not drawn) [Compound 730] |  |  | 100% | 100%
CCCOc1ccc(CN2CCC(C(OC(=O)Nc3ccc(Cl)cc3)c3ccc(C(F)(F)F)cc3)CC2)cc1 (stereo not drawn) [Compound 490] | 100% | 100% |  | 
CCCOc1ccc(C[N+]2([O-])CCC(C(OC(=O)Nc3cc(F)cc(F)c3)c3ccc(C(F)(F)F)cc3)CC2)cc1 (stereo not drawn) [Compound 741] |  |  | 100% | 100%
O=C(Nc1cc(F)cc(F)c1)OC(c1ccc(C(F)(F)F)cc1)C1CCN(Cc2ccc(NC(=O)c3c(F)cccc3F)cc2)CC1 (stereo not drawn) [Compound 552] | 100% | 100% |  | 
c1ccc(C(=C2CCN(Cc3ccc(Oc4ccccn4)cc3)CC2)c2ccccc2)cc1 [Compound 808] |  |  | 0% | 64%
CC(C)OC(=O)Nc1ccc(CN2CCC(C(OC(=O)Nc3cc(F)cc(F)c3)c3ccc(Cl)cc3Cl)CC2)cc1 (stereo not drawn) [Compound 507] | 100% | 100% |  | 
CCn1nnc(-c2ccc(CN3CCC(C(OC(=O)Nc4cc(F)cc(F)c4)c4cccc(F)c4)CC3)cc2)n1 (stereo not drawn) [Compound 585] | 100% | 100% |  | 
FC(F)(F)c1ccc(OC(c2ccc(C(F)(F)F)cc2)C2CCN(Cc3ccc(Oc4ccccn4)cc3)CC2)cc1 (stereo not drawn) [Compound 455] | 100% | 100% |  | 
O=C(Nc1ccc(Cl)cc1)OC(c1ccc(C(F)(F)F)cc1)C1CCN(Cc2ccc(Oc3cccc[n+]3[O-])cc2)CC1 (stereo not drawn) [Compound 669] | 100% | 100% |  | 
Fc1ccccc1Oc1ccc(CN2CCC(=C(c3ccc(C(F)(F)F)cc3)c3ccc(C(F)(F)F)cc3)CC2)cc1 [Compound 806] |  |  | 0% | 100%
CC(C)OC(=O)OC(c1ccc(C(F)(F)F)cc1)C1CCN(Cc2ccc(Oc3ccccn3)cc2)CC1 (stereo not drawn) [Compound 770] |  |  | 0% | 76%
Cc1ccc(OC(=O)NC(c2ccc(OC(F)(F)F)cc2)C2CCN(Cc3ccc(-c4nnn(C)n4)cc3)CC2)cc1 (stereo not drawn) [Compound 355] | 100% | 100% |  | 
CCCOc1ccc(CN2CCC(C(OC(=O)Nc3ccc(C(F)(F)F)cc3)c3ccc(Cl)cc3)CC2)cc1 (stereo not drawn) [Compound 473] | 100% | 100% |  | 
CCn1nnc(-c2ccc(CN3CCC(C(OC(=O)Nc4ccc(Cl)c(Cl)c4)c4ccc(C)cc4)CC3)cc2)n1 (stereo not drawn) [Compound 596] | 100% | 100% |  | 
CCn1nnc(-c2ccc(CN3CCC(C(OC(=O)Nc4ccc(C(F)(F)F)cc4)c4ccc(C)cc4)CC3)cc2)n1 (stereo not drawn) [Compound 600] | 100% | 100% |  | 
C=CCNC(=O)OC(c1ccc(C(F)(F)F)cc1)C1CCN(Cc2ccc(Oc3ccccn3)cc2)CC1 (stereo not drawn) [Compound 780] |  |  | 0% | 98%
CCn1nnc(-c2ccc(CN3CCC(C(OC(=O)Nc4ccc(C)cc4)c4ccc(OC(F)(F)F)cc4)CC3)cc2)n1 (stereo not drawn) [Compound 285] | 100% | 100% |  | 
